From paper PMC12040169 (PLOS Biology, 2025)

Test: in vitro
Details: human, hela cells, % viability

Compound | viability at 28.5 h, 10 µM [%]
Clc1ccc(-c2nccnc2OCc2ccccn2)cc1Cl [CBK107108] | 94.7
CC(C)(C)S(=O)(=O)c1ccc2nc3c(n2c1)CCCC3 [CBK006753] | 94.9
Nc1ncc(-c2cccc(F)c2)nc1-c1ccc(C(=O)N2CCOCC2)cc1 [CBK064131] | 88.4
CC(C)(C)OC(=O)N1CCC(c2nc3ccccc3cc2N)CC1 [CBK285038] | 82.6
CSc1ncc(Cl)c(C(=O)Nc2nc(-c3ccc(S(=O)(=O)N4CCCCCC4)cc3)cs2)n1 [CBK268785] | 96.5
CCCCc1ccc(-c2cnc(N)c3ncccc23)cc1 [CBK067588] | 75.7
CN(C)CCN1C(=O)C(O)=C(C(=O)c2cccs2)C1c1ccc([N+](=O)[O-])cc1 (centres unmarked) [CBK264584] | 92.6
O=C(c1ccccn1)N1CCN(CCc2ccccc2)CC1 [CBK200201] | 99.1
CCc1c(C)sc(NC(=O)C2C3C=CC(C3)C2C(=O)O)c1C(N)=O (centres unmarked) [CBK265433] | 97.9
COc1ccc(Cl)cc1NC(=O)CN(c1cccc(C(C)=O)c1)S(C)(=O)=O [CBK267835] | 108
O=C(Cn1nc(C(F)(F)F)c2cccn2c1=O)NC1CCCC1 [CBK282867] | 90.2
Cc1cc(C)n2nc(C(=O)N3CCC(C)CC3c3ccco3)nc2n1 (centres unmarked) [CBK305196] | 84.8
Cc1ccc(SC(C)C(=O)O/N=C(\N)c2ccccn2)cc1 (centres unmarked) [CBK268567] | 111
COCCN(Cc1cnn(C)c1)Cc1cc(O)c2cc(F)ccc2n1 [CBK307359] | 103
COc1ccc(CN2CCCN(c3cc(OCC4COc5ccccc5O4)ncn3)CC2)cc1 (centres unmarked) [CBK083255T] | 88
O=C(NCc1ccc(F)cc1)c1cc(Br)cnc1NCc1cccnc1 [CBK076405] | 104
CCN(CCO)c1ccc(Nc2nc(Br)cn3ccnc23)cc1 [CBK037475] | 98.9
Cc1nc(S(=O)(=O)N2CCC3(CCCCC3)C2)cn1C [CBK306306] | 100
COC(=O)C1(Cc2ccccc2-c2ccncc2)CCNC1 (centres unmarked) [CBK281435] | 85.2
COc1ccc(C)cc1-n1ccc(C(=O)NC2(C#N)CCSC2)n1 (centres unmarked) [CBK304943] | 93.1
Cc1nc(C)c(C(=O)C2=C(O)C(=O)N(CCCN3CCOCC3)C2c2ccncc2)s1 (centres unmarked) [CBK235187] | 97.3

Compound | viability at 28.5 h, 10 µM [%]
COc1nc(OC)nc(Sc2ccc(N)cc2)n1 [CBK019319] | 88.3
CCNc1cccnc1N1CCN(C(=O)CCC(=O)c2ccc(NS(C)(=O)=O)cc2)CC1 [CBK010701] | 98.2
CC(C)(C)c1nc(-c2ccccc2)c2ccccn12 [CBK149256] | 101
Cc1ccnn1CCC(=O)N1CCCCC1c1nc2ccccc2[nH]1 (centres unmarked) [CBK282374] | 105
COc1cc(OC)c(NC(=O)CN(C)S(=O)(=O)c2cc(Cl)ccc2Cl)cc1Cl [CBK267399] | 91.3
O=[N+]([O-])c1ccc(NCCNc2nc3ccccc3nc2N2CCOCC2)cc1 [CBK266342] | 107
COc1cccc(CN2CCN(Cc3cc(OC)cc(OC)c3)CC2)c1 [CBK033622] | 91.2
Cc1c(F)cccc1CN(CC(C)(C)CN)C(=O)Nc1ccc(C(F)(F)F)cc1 [CBK002417C] | 89.5
Cc1ccc(F)cc1C(=O)NCC1CCN(c2cnn(C)c(=O)c2)C1 (centres unmarked) [CBK307235] | 92.2
CCOc1ccc(CC(=O)N2CCC(c3ccncc3)CC2)cc1 [CBK283596] | 87.8
CC(C)(C)NC(=O)Cn1c(=O)n(Cc2cccs2)c2ncccc21 [CBK283844] | 104
O=S(=O)(NCc1ccco1)N1CCOCC1 [CBK268749] | 90.2
CCNC(=O)N1CCCC(Cc2ccc(F)cc2F)(C(=O)OCC)C1 (centres unmarked) [CBK306734] | 81.9
c1cnn(CCNc2nc3nonc3nc2N2CCCCC2)c1 [CBK306740] | 83.8
CN1CC(CO)Oc2ccccc21 (centres unmarked) [CBK003872C] | 104
CC1CCCN(C(=O)c2cc(S(=O)(=O)N3CCOCC3)ccc2Cl)C1 (centres unmarked) [CBK305012] | 99.5
Cc1ccc(/C=C2\SC(=S)N(CC(=O)Nc3cccc(C(=O)O)c3)C2=O)cc1 [CBK263935] | 86.2
Cc1cccc(C(=O)Nc2nnc(C3=COCCO3)o2)c1 [CBK287406] | 94
O=C(O)c1ccc(CSc2nnc(-c3ccncc3)n2-c2ccc(Br)cc2)cc1 [CBK267559] | 84.9
CC(=O)Nc1ccc(-c2ccc(=O)n3c2[C@@H]2C[C@@H](CN(C(=O)C(C)(C)C)C2)C3)cc1 [CBK289199] | 112
COc1ccccc1CC(C)NC(=O)c1ccnn1C(C)C (centres unmarked) [CBK282595] | 86.9

Compound | viability at 28.5 h, 10 µM [%]
O=C1c2ccc(Oc3ccc4c(c3)C(=O)N(c3cccnc3)C4=O)cc2C(=O)N1c1cccnc1 [CBK262773] | 88.6
O=c1cc(N2CCCC2)cnn1Cc1cscn1 [CBK304635] | 84.1
Cc1nccn1CC(C)CNc1ccc(C(=O)c2ccccc2)cc1[N+](=O)[O-] (centres unmarked) [CBK298336] | 80.4
CC(C)c1ccc(S(=O)(=O)n2c(=O)n(CCc3c[nH]c4ccccc34)c3ccccc32)cc1 [CBK106518] | 87.4
O=C(O)CCNC(=O)c1ccc(C#CC2(O)CCCCC2)cc1 [CBK286554] | 93.2
COc1ccc(-c2cnc(NCC3CC3)c(C(=O)NCc3ccccc3SC)c2)cc1 [CBK076437] | 110
N#CC1=C(N)Oc2[nH]nc(-c3ccccc3)c2C12C(=O)N(Cc1ccccc1)c1ccccc12 (centres unmarked) [CBK267787] | 93.7
CCOc1ccc(S(=O)(=O)N2CCN(CCCC#N)CC2)c2cccnc12 [CBK063046] | 91.6
N#CC1=C(N)Oc2cc(O)ccc2C1c1ccccc1 (centres unmarked) [CBK219303] | 90.3
COc1cccc(CCC(=O)n2ccn(-c3ccc(N(C)C)cc3)c2=O)c1 [CBK106609] | 99
N#Cc1ccnc(N2CCN(CC(=O)NCC(F)(F)F)CC2)c1 [CBK305042] | 95.1
Cc1nn(C)c(C)c1CN1CCN(C(=S)Nc2ccc(S(N)(=O)=O)cc2)CC1 [CBK267030] | 94.1
CCCC1=NN=C(c2cc(C(F)(F)F)ccc2C(F)(F)F)C1C(=O)OCC (centres unmarked) [CBK103527] | 118
COCCCn1c(=O)[nH]c2ncc(-c3cccc(OC)c3)nc21 [CBK064519] | 108
CC(NC(=O)c1cc2ccc(N(C)C)cc2[nH]1)c1ccccn1 (centres unmarked) [CBK281821] | 80.6
CCC(C)C(=O)O[C@H]1C[C@@H](C)C=C2C=C[C@H](C)[C@H](CC[C@@H]3C[C@@H](O)CC(=O)O3)[C@H]21 (some centres unmarked) [CBK011646] | 85.2
O=C1CC(N2CCN(c3ccc(S(=O)(=O)N4CCOCC4)cc3)CC2)C(=O)N1Cc1ccccc1 (centres unmarked) [CBK268713] | 107
O=C(CSc1nnc(Nc2ccccc2)n1-c1ccccc1)Nc1ccc2c(c1)COC2=O [CBK268298] | 105
COc1ncc(-c2nccnc2NCC(C)O)c(OC)n1 (centres unmarked) [CBK036970] | 105

Same assay, conditions: human, hela cells, % viability, bulk resorufin, single well

Compound | viability at 28.5 h, 10 µM [%]
CSc1cc(C)c2c(c1)COC1(CCN(C(=O)c3ccco3)CC1)O2 [CBK061106] | 92.6
